According to patent US12171752B2, “Methods of treating post-COVID condition(s)” (priority 2022, dated 2024):

Columns and labels:
[1] = molecular target: T1, macrophage inhibitory factor (MIF) (Homo sapiens, UniProt P14174); settings: Cho et al., PNAS-USA 2010; cited from earlier work
T1 sequence (P14174 2-115 limits assumed): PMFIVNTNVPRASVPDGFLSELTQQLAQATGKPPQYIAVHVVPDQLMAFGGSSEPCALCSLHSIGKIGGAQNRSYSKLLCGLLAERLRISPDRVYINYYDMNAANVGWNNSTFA

PDE 3A = PDE 3A (Homo sapiens, UniProt Q14432); settings: Gibson et al., Eur J Pharmacol 2006; cited from earlier work
Sequence of PDE 3A (Q14432 whole entry): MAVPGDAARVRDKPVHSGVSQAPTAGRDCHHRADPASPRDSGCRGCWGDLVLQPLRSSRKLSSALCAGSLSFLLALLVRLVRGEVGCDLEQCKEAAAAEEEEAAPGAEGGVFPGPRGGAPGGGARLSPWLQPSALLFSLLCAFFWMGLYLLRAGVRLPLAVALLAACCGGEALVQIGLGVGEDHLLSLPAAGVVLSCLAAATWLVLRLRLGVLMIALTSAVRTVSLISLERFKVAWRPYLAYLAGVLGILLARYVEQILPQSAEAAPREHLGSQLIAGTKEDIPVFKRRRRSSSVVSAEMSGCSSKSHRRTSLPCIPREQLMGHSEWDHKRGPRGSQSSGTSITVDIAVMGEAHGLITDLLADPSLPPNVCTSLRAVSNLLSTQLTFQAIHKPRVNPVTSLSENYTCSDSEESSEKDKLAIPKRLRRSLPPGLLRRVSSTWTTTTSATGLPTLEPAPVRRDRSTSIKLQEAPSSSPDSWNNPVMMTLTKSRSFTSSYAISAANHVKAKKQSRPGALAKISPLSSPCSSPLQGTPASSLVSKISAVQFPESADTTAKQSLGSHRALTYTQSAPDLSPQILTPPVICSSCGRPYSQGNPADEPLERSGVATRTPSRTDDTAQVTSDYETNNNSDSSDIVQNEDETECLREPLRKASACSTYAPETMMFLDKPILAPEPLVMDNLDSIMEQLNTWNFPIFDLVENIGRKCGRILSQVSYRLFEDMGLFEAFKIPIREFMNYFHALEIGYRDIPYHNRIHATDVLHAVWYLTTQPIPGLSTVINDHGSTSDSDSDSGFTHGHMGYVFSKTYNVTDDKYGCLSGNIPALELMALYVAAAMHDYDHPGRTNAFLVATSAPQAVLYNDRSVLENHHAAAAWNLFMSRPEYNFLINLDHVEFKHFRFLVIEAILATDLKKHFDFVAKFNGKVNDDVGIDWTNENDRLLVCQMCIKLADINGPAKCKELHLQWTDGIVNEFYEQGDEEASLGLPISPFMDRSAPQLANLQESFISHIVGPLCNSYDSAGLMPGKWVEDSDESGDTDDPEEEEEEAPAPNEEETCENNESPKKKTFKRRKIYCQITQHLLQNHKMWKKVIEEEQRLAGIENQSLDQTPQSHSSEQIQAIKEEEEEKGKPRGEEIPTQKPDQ

[2] = Sanftner et al., Xenobiotica 2009; cited from earlier work
leukotriene D4 = settings: reported; cited from earlier work
TNFα = assay: Spike protein-mediated TNFα release from human monocyte-derived microglia (iMDM); format: cell-based; settings: for Dose dependence of TNFα reduction: ibudilast 1, 10 or 100 μM
PDE 11A1 = PDE 11A1 (Homo sapiens, UniProt Q9HCR9); settings: Gibson et al., Eur J Pharmacol 2006; cited from earlier work
Sequence of PDE 11A1 (Q9HCR9 445-933): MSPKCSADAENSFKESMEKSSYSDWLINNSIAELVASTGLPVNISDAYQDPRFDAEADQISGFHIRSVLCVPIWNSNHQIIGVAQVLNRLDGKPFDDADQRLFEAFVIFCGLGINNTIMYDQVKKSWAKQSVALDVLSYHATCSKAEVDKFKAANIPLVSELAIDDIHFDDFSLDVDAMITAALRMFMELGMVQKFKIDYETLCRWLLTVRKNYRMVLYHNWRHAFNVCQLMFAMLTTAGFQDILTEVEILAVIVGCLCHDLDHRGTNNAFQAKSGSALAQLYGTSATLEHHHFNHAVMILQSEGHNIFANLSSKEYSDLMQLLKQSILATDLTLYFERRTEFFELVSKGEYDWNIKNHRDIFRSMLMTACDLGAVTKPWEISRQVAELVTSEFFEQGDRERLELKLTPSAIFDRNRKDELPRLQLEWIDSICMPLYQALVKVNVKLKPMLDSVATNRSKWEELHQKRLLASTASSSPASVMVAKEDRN

[3] = molecular target: toll-like receptor-4 (TLR4) (Homo sapiens, UniProt O00206); settings: Yang et al., Cell Death and Disease 2016; cited from earlier work
Sequence of toll-like receptor-4 (TLR4) (O00206 24-839, species assumed): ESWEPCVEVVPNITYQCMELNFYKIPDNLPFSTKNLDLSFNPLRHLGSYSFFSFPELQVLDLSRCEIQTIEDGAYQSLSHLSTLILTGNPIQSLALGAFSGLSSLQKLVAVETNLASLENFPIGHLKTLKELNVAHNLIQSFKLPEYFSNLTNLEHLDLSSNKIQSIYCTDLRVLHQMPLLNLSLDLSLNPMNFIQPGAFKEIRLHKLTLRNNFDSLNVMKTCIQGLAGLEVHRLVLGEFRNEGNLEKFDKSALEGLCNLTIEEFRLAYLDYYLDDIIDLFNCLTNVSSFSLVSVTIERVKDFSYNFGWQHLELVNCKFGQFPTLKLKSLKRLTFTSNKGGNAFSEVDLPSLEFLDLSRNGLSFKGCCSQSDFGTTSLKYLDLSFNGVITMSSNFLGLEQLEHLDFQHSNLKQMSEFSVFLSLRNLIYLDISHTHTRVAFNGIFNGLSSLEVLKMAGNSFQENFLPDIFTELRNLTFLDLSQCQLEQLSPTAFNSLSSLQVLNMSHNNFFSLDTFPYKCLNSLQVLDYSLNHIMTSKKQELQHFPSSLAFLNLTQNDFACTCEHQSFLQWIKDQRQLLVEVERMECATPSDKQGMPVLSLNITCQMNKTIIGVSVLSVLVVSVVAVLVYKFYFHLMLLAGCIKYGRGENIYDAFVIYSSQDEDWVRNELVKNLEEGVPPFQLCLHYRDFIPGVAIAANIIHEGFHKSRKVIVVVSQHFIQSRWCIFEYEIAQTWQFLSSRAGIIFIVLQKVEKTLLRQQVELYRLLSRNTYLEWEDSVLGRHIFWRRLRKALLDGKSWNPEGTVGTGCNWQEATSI

PAF = settings: reported; cited from earlier work
IL-6 = assay: Spike protein-mediated IL-6 release from human monocyte-derived microglia (iMDM); format: cell-based
PDE 10A1 = PDE 10A1 (Homo sapiens, UniProt Q9Y233); settings: Gibson et al., Eur J Pharmacol 2006; cited from earlier work
Sequence of PDE 10A1 (Q9Y233 1-779 isoform Q9Y233-1): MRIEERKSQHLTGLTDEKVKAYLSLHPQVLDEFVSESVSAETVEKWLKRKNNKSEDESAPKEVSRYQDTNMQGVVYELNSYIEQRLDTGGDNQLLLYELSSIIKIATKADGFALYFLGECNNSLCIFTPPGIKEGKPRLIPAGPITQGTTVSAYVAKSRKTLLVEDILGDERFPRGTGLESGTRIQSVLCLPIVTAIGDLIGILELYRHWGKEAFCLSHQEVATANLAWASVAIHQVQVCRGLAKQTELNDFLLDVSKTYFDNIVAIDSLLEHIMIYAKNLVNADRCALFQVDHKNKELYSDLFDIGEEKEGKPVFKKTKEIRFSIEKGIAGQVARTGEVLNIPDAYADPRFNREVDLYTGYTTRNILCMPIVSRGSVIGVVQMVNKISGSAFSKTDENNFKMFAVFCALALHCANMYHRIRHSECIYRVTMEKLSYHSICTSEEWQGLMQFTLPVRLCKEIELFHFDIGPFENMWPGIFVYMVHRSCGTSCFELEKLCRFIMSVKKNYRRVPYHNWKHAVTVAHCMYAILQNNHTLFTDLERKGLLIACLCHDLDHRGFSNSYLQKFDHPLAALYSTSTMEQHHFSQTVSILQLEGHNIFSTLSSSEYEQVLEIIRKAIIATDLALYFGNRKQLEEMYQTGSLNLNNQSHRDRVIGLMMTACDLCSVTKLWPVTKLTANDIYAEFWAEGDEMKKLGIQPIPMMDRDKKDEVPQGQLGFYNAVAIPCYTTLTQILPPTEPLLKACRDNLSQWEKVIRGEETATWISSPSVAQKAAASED

MIF = assay: Plasma level of MIF; settings: found by the inventors
PDE 4 = settings: Gibson et al., Eur J Pharmacol 2006; cited from earlier work

CC(C)C(=O)c1c(C(C)C)nn2ccccc12 [Ibudilast, 2-methyl-1-(2-(1-methylethyl)pyrazolo (1,5-a)pyridin-3-yl) 1-propanone]
HPP tautomerase activity of MIF [1]: allosteric inhibitor
PDE 3A inhibition (PDE 3A): selective inhibitor
CNS penetration [2]: good CNS penetration
leukotriene D4 antagonistic activity (leukotriene D4): antagonistic activities
Dose dependence of TNFα reduction (TNFα; "Omicron" spike protein (1.0 μg/ml) with cross-linker, all 3 donors): Dose-dependent curves are observed
Dose dependence of TNFα reduction (TNFα; "Omicron" spike protein (5.0 μg/ml) with cross-linker, donor 3): Dose-dependent curves are observed
TNFα levels elevated by "Omicron" spike protein (TNFα; "Omicron" spike protein, under certain test conditions, FIGS. 6-8): reduction by ibudilast was evident under certain test conditions
(LPS+spike protein)-evoked levels of TNFα (TNFα; all donors, FIGS. 1-3): reduced
TNFα levels (TNFα; iMDM, […], ibudilast 1.0, 10, 100 μM): reduce
PDE 11A1 inhibition (PDE 11A1): selective inhibitor
TLR4 antagonistic activity [3]: antagonistic activity
PAF antagonistic activity (PAF): antagonistic activities
(LPS+spike protein)-evoked levels of IL-6 (IL-6; donors 2 and 3, FIGS. 4-5): reduced
IL-6 levels (IL-6; iMDM, "low" concentration (10 ng/mL) of LPS added with the spike proteins (all variants), ibudilast 1.0, 10, 100 μM): reduce
PDE 10A1 inhibition (PDE 10A1): selective inhibitor
plasma level of MIF (MIF): lowers plasma level of MIF
PDE 4 inhibition (PDE 4): selective inhibitor
